Where “and” joins values, the source holds several entries; their conditions need not be identical. Equal entries are not always repeated.
Target: PDEV (Oryctolagus cuniculus, UniProt G1SX67)
Experiment: Cyclic nucleotide phosphodiesterase (PDE) assay, inhibition of PDEV isolated from rabbit tissue
Type: biochemical
Details: 10 μM test compound, rabbit PDEV
Method: Briefly, rabbit or human tissues were homogenized in an ice-cold buffer solution containing 20 mM HEPES (pH 7.2), 0.25M sucrose, 1 mM EDTA, and 1 mM phenylmethylsulphonyl fluoride (PMSF). The homogenates were centrifuged at 100,000 g for 60 minutes at 4° C. The supernatant was filtered through […] filter and loaded on a Pharmacia Mono Q anion exchange column (1 ml bed volume) that was equilibrated with 20 mM HEPES, 1 mM EDTA and 0.5 mM PMSF. […] The fractions comprising various PDE activities were pooled separately and used in later studies.
The assays were adapted to a 96-well format. The enzyme was assayed in 5 mM MgCl2, 15 mM Tris HCl (pH 7.4), 0.5 mg/ml bovine serum albumin, 1 μM cGMP or cAMP, 0.1 μCi [^3H]-cGMP or [^3H]-cAMP, and 2-10 μl of column elution. The total volume of the assay was 100 μl. The reaction mixture was incubated at 30° C. for 30 minutes. The reaction was stopped by boiling for 1 minute and then cooled down on ice. The resulting [^3H] 5′-mononucleotides were further converted to uncharged [^3H]-nucleosides by adding 25 μl 1 mg/ml snake venom (Ophiophagus hannah) and incubating at 30° C. for 10 minute. The reaction was stopped by the addition of 1 ml Bio-Rad AG1-X2 resin slurry (1:3). All the charged nucleotides were bound by the resin and only the uncharged [^3H]-nucleosides remained in the supernatant after centrifuging. An aliquot of 200 μl was taken and counted by liquid scintillation. PDE activity was expressed as pmol cyclic nucleotide hydrolyzed/min/ml of enzyme preparation.
Inhibitor studies were carried out in assay buffer with a final concentration of 10% DMSO.

Row | Compound | % Inh @ 10 μM (rabbit) [%] | % Inh @ 10 μM (rabbit) (10 µM)
1 | O=C(O)Cn1c2c(c3ccccc31)CCN(C(=O)c1ccc(-c3cccc([N+](=O)[O-])c3)o1)C2c1ccc2c(c1)OCO2 (stereo not drawn) [Cmpd 30] | 93 | 
2 | O=C(O)Cn1c2c(c3ccccc31)CCN(C(=O)c1ccc(-c3cccc(C(F)(F)F)c3)o1)C2c1ccc2c(c1)OCO2 (stereo not drawn) [Cmpd 31] | 75 | 
3 | CCN(CC)CCn1c2c(c3ccccc31)CCN(C(=O)c1ccc(-c3cccc(C(F)(F)F)c3)o1)C2c1ccc2c(c1)OCO2 (stereo not drawn) [Cmpd 33] |  | 88% and 63%
4 | CN(C)CCCCn1c2c(c3ccccc31)CCN(C(=O)c1ccc(-c3cccc(C(F)(F)F)c3)o1)C2c1ccc2c(c1)OCO2 (stereo not drawn) [Cmpd 34] | 67 | 
5 | CN(C)CCn1c2c(c3ccccc31)CCN(C(=O)c1ccc(-c3cccc(C(F)(F)F)c3)o1)C2c1ccc2c(c1)OCO2 (stereo not drawn) [Cmpd 35] | 98 | 
6 | CN(C)CCn1c2c(c3ccccc31)CCN(C(=O)c1ccc(C(C)(C)C)o1)C2c1ccc2c(c1)OCO2 (stereo not drawn) [Cmpd 36] | 97 | 
7 | CN(C)CCn1c2c(c3ccccc31)CCN(C(=O)c1ccc(-c3ccc([N+](=O)[O-])cc3)o1)C2c1ccc2c(c1)OCO2 (stereo not drawn) [Cmpd 37] | 95 | 
8 | CN(C)CCn1c2c(c3ccccc31)CCN(C(=O)c1ccc(-c3cccc([N+](=O)[O-])c3)o1)C2c1ccc2c(c1)OCO2 (stereo not drawn) [Cmpd 38] | 91 | 
9 | CN(C)CCn1c2c(c3ccccc31)CCN(C(=O)c1ccc(-c3ccc(Cl)cc3)o1)C2c1ccc2c(c1)OCO2 (stereo not drawn) [Cmpd 39] | 93 | 
10 | CN(C)CCn1c2c(c3ccccc31)CCN(C(=O)c1ccc(-c3ccc(Cl)cc3[N+](=O)[O-])o1)C2c1ccc2c(c1)OCO2 (stereo not drawn) [Cmpd 40] | 78 | 
11 | CN(C)CCn1c2c(c3ccccc31)CCN(C(=O)c1ccc(-c3ccccc3[N+](=O)[O-])o1)C2c1ccc2c(c1)OCO2 (stereo not drawn) [Cmpd 41] | 93 | 
12 | Cc1ccc(-c2ccc(C(=O)N3CCc4c(n(CCN(C)C)c5ccccc45)C3c3ccc4c(c3)OCO4)o2)c([N+](=O)[O-])c1 (stereo not drawn) [Cmpd 42] | 89 | 
13 | CN(C)CCn1c2c(c3ccccc31)CCN(C(=O)c1ccc(-c3cc(C(F)(F)F)ccc3Cl)o1)C2c1ccc2c(c1)OCO2 (stereo not drawn) [Cmpd 43] | 22 | 
14 | CN(C)CCCn1c2c(c3ccccc31)CCN(C(=O)c1ccc(-c3cccc(C(F)(F)F)c3)o1)C2c1ccc2c(c1)OCO2 (stereo not drawn) [Cmpd 44] | 65 | 
15 | O=C(c1ccc(-c2ccc(Cl)cc2[N+](=O)[O-])o1)N1CCc2c([nH]c3ccccc23)C1c1ccc2c(c1)OCO2 (stereo not drawn) [Cmpd 47] |  | 83%
16 | CC(=O)Nc1ccc(-c2ccc(C(=O)N3CCc4c([nH]c5ccccc45)C3c3ccc4c(c3)OCO4)o2)cc1 (stereo not drawn) [Cmpd 49] | 60 | 
17 | O=C(c1ccc(-c2ccc([N+](=O)[O-])cc2)o1)N1CCc2c([nH]c3ccccc23)C1c1ccc2c(c1)OCO2 (stereo not drawn) [Cmpd 50] | 76 | 
18 | Cc1ccc(-c2ccc(C(=O)N3CCc4c([nH]c5ccccc45)C3c3ccc4c(c3)OCO4)o2)c([N+](=O)[O-])c1 (stereo not drawn) [Cmpd 53] | 85 | 
19 | O=C(c1ccc(-c2cccc([N+](=O)[O-])c2)o1)N1CCc2c([nH]c3ccccc23)C1c1ccc2c(c1)OCO2 (stereo not drawn) [Cmpd 54] | 81 | 
20 | CC(=O)Nc1cccc(-c2ccc(C(=O)N3CCc4c([nH]c5ccccc45)C3c3ccc4c(c3)OCO4)o2)c1 (stereo not drawn) [Cmpd 55] | 70 | 
21 | O=C(c1ccc(-c2cc(C(F)(F)F)ccc2Cl)o1)N1CCc2c([nH]c3ccccc23)C1c1ccc2c(c1)OCO2 (stereo not drawn) [Cmpd 57] | 76 | 
22 | Nc1cccc(-c2ccc(C(=O)N3CCc4c([nH]c5ccccc45)C3c3ccc4c(c3)OCO4)o2)c1 (stereo not drawn) [Cmpd 59] | 92 | 
23 | O=C(c1ccc(-c2ccc(NCCCCO)cc2)o1)N1CCc2c([nH]c3ccccc23)C1c1ccc2c(c1)OCO2 (stereo not drawn) [Cmpd 60] | 89 | 

Row | Compound | % Inh @ 10 μM (rabbit) [%] | % Inh @ 10 μM (rabbit) (10 µM)
24 | O=C(c1ccc(C(F)(F)F)o1)N1CCc2c([nH]c3ccccc23)C1c1ccc2c(c1)OCO2 (stereo not drawn) [Cmpd 62] | 86 | 
25 | O=C(c1ccc(Br)o1)N1CCc2c([nH]c3ccccc23)C1c1ccc2c(c1)OCO2 (stereo not drawn) [Cmpd 63] | 78 | 
26 | O=C(c1ccc([N+](=O)[O-])o1)N1CCc2c([nH]c3ccccc23)C1c1ccc2c(c1)OCO2 (stereo not drawn) [Cmpd 64] | 83 | 
27 | CC(C)(C)c1ccc(C(=O)N2CCc3c([nH]c4ccccc34)C2c2ccc3c(c2)OCO3)o1 (stereo not drawn) [Cmpd 65] | 66 | 
28 | O=C(c1ccc(-c2ccc(Cl)cc2[N+](=O)[O-])o1)N1CCc2c([nH]c3ccccc23)C1c1ccc2c(c1)OCO2 (stereo not drawn) [Cmpd 66] |  | 23%
29 | O=C(O)C1Cc2c([nH]c3ccccc23)C(c2ccc3c(c2)OCO3)N1C(=O)c1ccc(-c2cccc([N+](=O)[O-])c2)o1 (stereo not drawn) [Cmpd 67] | 50 | 
30 | CN(C)CCOC(=O)C1Cc2c([nH]c3ccccc23)C(c2ccc3c(c2)OCO3)N1C(=O)c1ccc(-c2cccc([N+](=O)[O-])c2)o1 (stereo not drawn) [Cmpd 68] | 35 | 
31 | CN(C)CCNC(=O)C1Cc2c([nH]c3ccccc23)C(c2ccc3c(c2)OCO3)N1C(=O)c1ccc(-c2cccc(C(F)(F)F)c2)o1 (stereo not drawn) [Cmpd 69] | 21 | 
32 | O=C(O)C1Cc2c([nH]c3ccccc23)C(c2ccc3c(c2)OCO3)N1C(=O)c1ccc(-c2cccc(C(F)(F)F)c2)o1 (stereo not drawn) [Cmpd 70] | 46 | 
33 | COC(=O)C1Cc2c([nH]c3ccccc23)C(c2ccc3c(c2)OCO3)N1C(=O)c1ccc(-c2cccc([N+](=O)[O-])c2)o1 (stereo not drawn) [Cmpd 73] | 20 | 
34 | O=C(c1ccc(-c2cccc(C(F)(F)F)c2)o1)N1CCc2c(n(Cc3ccncc3)c3ccccc23)C1c1ccc2c(c1)OCO2 (stereo not drawn) [Cmpd 74] | 84 | 
35 | O=C(c1ccc(-c2cccc([N+](=O)[O-])c2)o1)N1CCc2c(sc3ccccc23)C1c1ccc2c(c1)OCO2 (stereo not drawn) [Cmpd 76] | 27 | 
36 | O=C(c1ccc(-c2ccc(Cl)cc2)o1)N1CCc2c(sc3ccccc23)C1c1ccc2c(c1)OCO2 (stereo not drawn) [Cmpd 77] | 58 | 
37 | O=C(c1ccc(-c2cccc(C(F)(F)F)c2)o1)N1CCc2c([nH]c3ccccc23)C1c1cccnc1 (stereo not drawn) [Cmpd 78] | 35 | 
38 | N#Cc1ccc(C2c3[nH]c4ccccc4c3CCN2C(=O)c2ccc(-c3cccc([N+](=O)[O-])c3)o2)cc1 (stereo not drawn) [Cmpd 80] | 27 | 
39 | N#Cc1ccc(C2c3[nH]c4ccccc4c3CCN2C(=O)c2ccc(-c3cccc(C(F)(F)F)c3)o2)cc1 (stereo not drawn) [Cmpd 81] | 18 | 
40 | CN(C)c1ccc(C2c3[nH]c4ccccc4c3CCN2C(=O)c2ccc(-c3cccc(C(F)(F)F)c3)o2)cc1 (stereo not drawn) [Cmpd 82] | 13 | 
41 | CN(C)c1ccc(C2c3[nH]c4ccccc4c3CCN2C(=O)c2ccc(-c3cccc([N+](=O)[O-])c3)o2)cc1 (stereo not drawn) [Cmpd 83] | 27 | 
42 | O=C(c1ccc(-c2cccc(C(F)(F)F)c2)o1)N1CCc2c([nH]c3ccccc23)C1c1ccc([N+](=O)[O-])cc1 (stereo not drawn) [Cmpd 84] | 20 | 
43 | O=C(c1ccc(-c2cccc([N+](=O)[O-])c2)o1)N1CCc2c([nH]c3ccccc23)C1c1ccc([N+](=O)[O-])cc1 (stereo not drawn) [Cmpd 85] | 26 | 
44 | O=C(c1ccc(-c2cccc([N+](=O)[O-])c2)o1)N1CCc2c([nH]c3ccccc23)C1c1ccncc1 (stereo not drawn) [Cmpd 86] | 69 | 
45 | O=C(c1ccc(-c2cccc(C(F)(F)F)c2)o1)N1CCc2c([nH]c3ccccc23)C1c1ccncc1 (stereo not drawn) [Cmpd 87] | 34 | 

Reference: US6864253B2, “Benzo[4,5]thieno[2,3-c]pyridine and Benzo[4,5]furo[2,3-c]pyridine Derivatives Useful as Inhibitors of Phosphodiesterase” (Orth-McNeil Pharmaceutical, Inc., priority 2000, dated 2005)
